Data on 60 molecules can be found in ChEMBL document CHEMBL1158352, “Development of CoMFA and CoMSIA models of cytotoxicity data of anti-HIV-1-phenylamino-1H-imidazole derivatives” (Eur J Med Chem, 2009).

As usually defined, the CC50 is the concentration that lowers cell viability or growth by half. A high value points to lower toxicity to the cells.

The data set can be described thus: Cytotoxicity against human MT4 cells. Format: cell-based.
For `Cc1[nH]c(=S)n(Nc2cccc(Cl)c2)c1-c1cccc(Cl)c1`, it took 31 µM to reach half-maximal cytotoxicity (CC50).
For `Cc1nc(S)n(Nc2cccc3ccccc23)c1-c1ccccc1` the value was 12 µM; for `Cc1[nH]c(=S)n(Nc2ccc(Cl)cc2)c1-c1ccccc1`, 135 µM.
For `Cc1[nH]c(=S)n(Nc2ccc(F)cc2)c1-c1ccccc1` the value was 220 µM.
On to `COc1ccc(-c2c(C)[nH]c(=S)n2Nc2cccc(Cl)c2)cc1`, for which the CC50 came to 38.7 µM.
For `Cc1[nH]c(=S)n(Nc2cccc(Cl)c2)c1-c1ccc(Cl)cc1` the value was 40.8 µM; for `Cc1c(-c2ccccc2)nc(S)n1Nc1cccc(Cl)c1`, 50 µM.
Turning to `Cc1[nH]c(=S)n(Nc2cccc(Cl)c2)c1-c1cccc(Br)c1`, the midpoint of cytotoxicity, the CC50, lay at 44 µM.
For `Cc1nc(S)n(Nc2cccc(Cl)c2)c1-c1ccc(Br)cc1`, it took 33.2 µM to reach half-maximal cytotoxicity (CC50).
Then `Cc1[nH]c(=S)n(Nc2cccc(Cl)c2)c1-c1ccccc1`, with 66.7 µM; and `COC(=O)c1c(C)nc(S)n1Nc1cccc(Cl)c1`, with 190 µM.
For `Cc1cccc(Nn2c(S)nc(C)c2C)c1` the value was 360 µM.
For `Cc1cccc(Nn2c(-c3ccccc3)c(C(C)C)[nH]c2=S)c1` the value was 42.7 µM; for `Cc1ncn(Nc2cccc(Cl)c2)c1-c1cccc(C(=O)O)c1`, 161 µM.
As for `Cc1nc(S)n(Nc2cccc(Cl)c2)c1-c1cccc(C#N)c1`, the CC50 was 99.3 µM.
Then `Cc1[nH]c(=S)n(Nc2ccccc2Cl)c1-c1ccccc1`, with 162 µM; and `Cc1ncn(Nc2ccccc2)c1C`, with 352 µM.
In the case of `Cc1cccc(Nn2cnc(C)c2-c2ccccc2)c1`, the 50% cytotoxic concentration (CC50) is 27 µM.
Then `COC(=O)c1cccc(-c2c(C)ncn2Nc2cccc(Cl)c2)c1`, with 33.1 µM; and `Cc1ccc(Nn2c(-c3ccccc3)c(C)[nH]c2=S)cc1C`, with 55.6 µM; and `Cc1cccc(Nn2cnc(C)c2-c2cccc(N)c2)c1`, with 163 µM.
For `COC(=O)c1c(C)ncn1Nc1cccc(Cl)c1` the value was 107 µM; for `Sc1nc(-c2ccccc2)c(-c2ccccc2)n1Nc1cccc(Cl)c1`, 36.3 µM.
For `CCc1[nH]c(=S)n(Nc2cccc(C)c2)c1-c1ccccc1` the value was 53.6 µM; for `COC(=O)c1nc(S)n(Nc2cccc(Cl)c2)c1C`, 48.8 µM.
`Cc1nc(S)n(Nc2ccccc2)c1C` returned a 50% cytotoxic concentration (CC50) of 181 µM.
Turning to `Cc1ncn(Nc2cccc(Cl)c2)c1C`, the cytotoxic concentration (CC50) is 214 µM.
For `Cc1nc(S)n(Nc2cccc(Cl)c2)c1C(=O)O`, the CC50 is 265 µM.
Regarding `CCc1[nH]c(=S)n(Nc2cccc(Cl)c2)c1-c1ccccc1`, the half-maximal cytotoxic concentration (CC50) amounted to 39 µM.
Molecule `Cc1nc(S)n(Nc2cccc(Cl)c2)c1C` yielded a CC50 of 259 µM.
Then `Cc1ncn(Nc2ccccc2)c1-c1ccccc1`, with 52.1 µM; and `Cc1[nH]c(=S)n(Nc2ccccc2)c1-c1ccccc1`, with 191 µM.
For `Cc1cc(C)cc(Nn2c(-c3ccccc3)c(C)[nH]c2=S)c1` the value was 194 µM; for `CSc1ccc(Nn2c(S)nc(C)c2-c2ccccc2)cc1`, 53.1 µM; for `CCc1ncn(Nc2cccc(C)c2)c1-c1ccccc1`, 27.9 µM.
For `Clc1cccc(Nn2cnc3c2CCCC3)c1` the value was 67.3 µM; for `Cc1cccc(Nn2cnc(C)c2-c2cccc(C#N)c2)c1`, 44.7 µM; for `Cc1nc(S)n(Nc2cccc(Cl)c2)c1-c1cccc(C(=O)O)c1`, 120 µM.
The molecule `Cc1cccc(Nn2c(S)nc(C)c2-c2cccc(C(=O)O)c2)c1` displayed a half-maximal cytotoxic concentration (CC50) of 187 µM.
Then `Cc1[nH]c(=S)n(Nc2cccc(Br)c2)c1-c1ccccc1`, with 44.3 µM.
Molecule `Cc1cccc(Nn2c(-c3ccccc3)c(C)[nH]c2=S)c1` gave a 50% cytotoxic concentration (CC50) of 88.3 µM.
As for `Cc1nc(S)n(Nc2cc(Cl)ccc2Cl)c1-c1ccccc1`, the CC50 was determined as 147 µM.
Then `Cc1cc(C)cc(Nn2cnc(C)c2-c2ccccc2)c1`, with 20.4 µM.
Then `COC(=O)c1cccc(-c2c(C)nc(S)n2Nc2cccc(Cl)c2)c1`, with 67.3 µM.
For `Cc1ccc(Nn2c(-c3ccccc3)c(C)[nH]c2=S)cc1Cl` the value was 44.3 µM.
As to `CCc1ccc(Nn2c(S)nc(C)c2-c2ccccc2)cc1`, half-maximal cytotoxicity (CC50) was put at 34.4 µM.
For `Cc1ncn(Nc2ccc(F)cc2)c1-c1ccccc1` the value was 30.8 µM; for `Sc1nc2c(n1Nc1cccc(Cl)c1)CCCC2`, 126 µM.
For `Cc1nc(S)n(Nc2cccc(Cl)c2)c1-c1cccc(N)c1` the value was 42.2 µM.
Then `Cc1[nH]c(=S)n(Nc2cccc([N+](=O)[O-])c2)c1-c1ccccc1`, with 48.3 µM; and `Cc1ncn(Nc2cccc(Cl)c2)c1-c1cccc(Br)c1`, with 16.4 µM; and `COc1cccc(Nn2cnc(C)c2-c2ccccc2)c1`, with 34.4 µM.
For `Cc1ncn(Nc2cccc(Cl)c2)c1-c1ccccc1`, the CC50 came to 17.5 µM.
For `Cc1cccc(Nn2c(S)nc(C)c2-c2cccc(C#N)c2)c1` the value was 45.6 µM.
Then `Cc1ncn(Nc2cccc(Cl)c2)c1-c1cccc(C#N)c1`, with 36.8 µM; and `COc1cccc(Nn2c(S)nc(C)c2-c2ccccc2)c1`, with 38 µM.
For `Cc1ncn(Nc2cccc(Cl)c2)c1-c1cccc(Cl)c1` the value was 11.9 µM; for `Cc1cccc(Nn2cnc(C)c2C)c1`, 312 µM.
Molecule `Cc1ncn(Nc2cccc(Cl)c2)c1-c1cccc(N)c1` registered a CC50 of 261 µM.
For `Cc1[nH]c(=S)n(Nc2cccc(F)c2)c1-c1ccccc1` the value was 109 µM.
